Test results published in US20200024278A1, “COMPOSITION COMPRISING ANTIBIOTIC COMPOUND AND AN HETEROCYCLIC COMPOUND AND THEIR USE IN PREVENTING OR TREATING BACTERIAL INFECTIONS” (MUTABILIS, priority 2016, published 2020).

What was measured:
ECL P99 [1] = assay: Fractional Inhibitory Concentration Index, checkerboard assay; type: cell-based, E. cloacae
Description: (§1) Method 2: Determination of the Fractional Inhibitory Concentration Index
(§2) Serial 2-fold dilutions of each antibiotic tested were prepared in ca-MHB and mixed in each well of a 96-well microtiter plate so that each row (and column) contained a fixed amount of one agent and increasing amounts of the second agent. The range of drug concentrations used in the checkerboard analysis was such that the dilution range encompassed the MIC for each drug used in the analysis. Broth microdilution plates were inoculated with each strain (Table 3) to yield 5.10^5 CFU/mL in a 100 μL final volume and incubated for 18 h at 35° C. in ambient air. Assays including Fosfomycin were supplemented with 25 μg/ml of Glucose-6-phosphate. MICs were determined after overnight incubation, and the fractional inhibitory concentration (FIC) index was calculated for each well. The FIC index (FICI) was calculated for each combination according to the equation FICI=FICa+FICb=(MIC of drug A in combination/MIC of drug A alone)+(MIC of drug B in combination/MIC of drug B alone). The FICI was interpreted as follows: synergy, FICI […]; indifference, 0.5<FIC<4; and antagonism, FICI>4. The checkerboard assays were performed in duplicate.

ECO UFR39 = assay: MIC, broth microdilution (CLSI), substance alone or ATB combined with compound at 4 or 8 μg/mL; type: cell-based, E. coli; details: Escherichia coli; substance alone; ECO UFR39; read-out: MIC
Procedure, shortened: (§3)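 CLSI M7-A7 broth microdilution. ca-MHB, 5·10^5 CFU/mL log-phase cells, 16-20 h, 35° C, ambient air. Fosfomycin wells + 25 μg/ml glucose-6-phosphate. Visual MIC read.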

ECO 190317 [2] = assay: as above; type: cell-based, E. coli; details: Escherichia coli; substance alone; ECO 190317; read-out: MIC
Procedure, shortened: as §3

ECO 190317 [3] = assay: Fractional Inhibitory Concentration Index, checkerboard assay; type: cell-based, E. coli
Description: as §1, §2

PAE UFR48 [4] = assay: as above; type: cell-based, P. aeruginosa
Description: as §1, §2

PAE UFR90 [5] = assay: as above; type: cell-based, P. aeruginosa
Description: as §1, §2

SPN 49619 = assay: MIC, broth microdilution (CLSI), substance alone or ATB combined with compound at 4 or 8 μg/mL; type: cell-based, S. pneumoniae; details: SPN 49619; for MIC ATB combined with compound: compound @8 μg/ml
Procedure, shortened: as §3

PAE UFR48 [6] = assay: as above; type: cell-based, P. aeruginosa; details: PAE UFR48; for MIC ATB combined with compound: compound @8 μg/ml
Procedure, shortened: as §3

PAE 105250 = assay: as above; type: cell-based, P. aeruginosa; details: PAE 105250; for MIC ATB combined with compound: compound @8 μg/ml
Procedure, shortened: as §3

PAE UFR90 [7] = assay: as above; type: cell-based, P. aeruginosa; details: PAE UFR90; for MIC ATB combined with compound: compound @8 μg/ml
Procedure, shortened: as §3

SAU 29213 = assay: as above; type: cell-based, S. aureus; details: for MIC ATB combined with compound: compound @8 μg/ml, SAU 29213
Procedure, shortened: as §3

KPN BAA-1898 = assay: as above; type: cell-based, K. pneumoniae; details: Klebsiella pneumoniae, BAA1898; substance alone; KPN BAA-1898; read-out: MIC
Description: (§4) Compounds of the present invention were assessed against genotyped bacterial strains alone or in combination with an antibacterial. In the assays, MICs of said compounds or combination of antibiotics with fixed concentrations of said compounds (4 or 8 μg/mL) were determined by the broth microdilution method according to the Clinical Laboratory Standards Institute (CLSI-M7-A7). Briefly, compounds alone according to the invention were prepared in DMSO and spotted (2 μL each) on sterile polystyrene plates (Corning, 3788). Combinations of compounds and antibiotics dilutions were prepared in DMSO and spotted (1 μL each) on sterile polystyrene plates (Corning, 3788). Log phase bacterial suspensions were adjusted to a final density of 5·10^5 CFU/mL in cation-adjusted Mueller-Hinton broth (ca-MHB; Becton-Dickinson and Company) and added to each well (98 μL). Assays including Fosfomycin were supplemented with 25 μg/ml of Glucose-6-phosphate. Microplates were incubated for 16-20 h at 35° C. in ambient air. The MIC of the compounds was defined as the lowest concentration of said compounds that prevented bacterial growth as read by visual inspection. The MIC of ATB at each compound concentration was defined as the lowest concentration of ATB that prevented bacterial growth as read by visual inspection.

KPN UFR42 = assay: as above; type: cell-based, K. pneumoniae; details: Klebsiella pneumoniae; substance alone; KPN UFR42; read-out: MIC
Description: as §4

KPN UFR68 = assay: Fractional Inhibitory Concentration Index, checkerboard assay; type: cell-based, K. pneumoniae
Description: as §1, §2

ECL P99 [8] = assay: MIC, broth microdilution (CLSI), substance alone or ATB combined with compound at 4 or 8 μg/mL; type: cell-based, E. cloacae; details: Enterobacter cloacae; substance alone; ECL P99; read-out: MIC
Procedure, shortened: as §3

[9] = Pseudomonas aeruginosa, substance alone, read-out: MIC

MIC (ECO UFR39): 0.5 µg/mL
MIC (ECO 190317 [2]): 0.25 µg/mL
MIC ATB combined with compound (SPN 49619; ATB ATM): <0.031 µg/mL
MIC ATB combined with compound (SPN 49619; ATB FEP): <0.031 µg/mL
MIC ATB combined with compound (SPN 49619; ATB FOS): <=0.125 μg/mL
MIC ATB combined with compound (SPN 49619; ATB MEM): <0.031 µg/mL
MIC ATB combined with compound (SPN 49619; ATB PIP): <0.031 µg/mL
MIC (SPN 49619; Streptococcus pneumoniae, substance alone, read-out: MIC): 1 µg/mL
MIC ATB combined with compound (PAE UFR48 [6]; ATB ATM): 2 µg/mL
MIC ATB combined with compound (PAE UFR48 [6]; ATB FEP): <0.031 µg/mL
MIC ATB combined with compound (PAE UFR48 [6]; ATB FOS): 2 µg/mL
MIC ATB combined with compound (PAE UFR48 [6]; ATB MEM): <=0.031 μg/mL
MIC ATB combined with compound (PAE UFR48 [6]; ATB PIP): <0.031 µg/mL
MIC (PAE UFR48 [6]; [9]): 8 µg/mL
MIC ATB combined with compound (PAE 105250; ATB ATM): <0.031 µg/mL
MIC ATB combined with compound (PAE 105250; ATB FEP): <0.031 µg/mL
MIC ATB combined with compound (PAE 105250; ATB FOS): 16 µg/mL
MIC ATB combined with compound (PAE 105250; ATB MEM): 0.063 µg/mL
MIC ATB combined with compound (PAE 105250; ATB PIP): 0.063 µg/mL
MIC (PAE 105250; [9]): 8 µg/mL
MIC ATB combined with compound (PAE UFR90 [7]; ATB ATM): <0.031 µg/mL
MIC ATB combined with compound (PAE UFR90 [7]; ATB FEP): <0.031 µg/mL
MIC ATB combined with compound (PAE UFR90 [7]; ATB FOS): <0.125 µg/mL
MIC ATB combined with compound (PAE UFR90 [7]; ATB MEM): <0.031 µg/mL
MIC ATB combined with compound (PAE UFR90 [7]; ATB PIP): <0.031 µg/mL
MIC (PAE UFR90 [7]; [9]): 8 µg/mL
MIC ATB combined with compound (SAU 29213; ATB ATM): >32 µg/mL
MIC ATB combined with compound (SAU 29213; ATB FEP): 1 µg/mL
MIC ATB combined with compound (SAU 29213; ATB FOS): <=0.125 μg/mL
MIC ATB combined with compound (SAU 29213; ATB MEM): 0.063 µg/mL
MIC ATB combined with compound (SAU 29213; ATB PIP): 0.5 µg/mL
MIC (SAU 29213; Staphylococcus aureus, substance alone, SAU 29213 (MSSA 29213), read-out: MIC): 32 µg/mL
MIC (KPN BAA-1898): 16 µg/mL
MIC (KPN UFR42): 16 µg/mL
MIC (ECL P99 [8]): 0.5 µg/mL
Compound: NCCn1c2c(sc1=O)C1CN(C2)C(=O)N1OS(=O)(=O)[O-].[Na+] (stereo not drawn) [Example 3, sodium and 2,2,2-trifluoroacetate [5-(2-azaniumethyl)-4,9-dioxo-3-thia-5,8,10-triaza-tricyclo[6.2.1.0^2,6]undec-2(6)-en-10-yl] sulfate]
FIC index min (ECL P99 [1]; compound +ATM): 0.28
FIC index min (ECL P99 [1]; compound +FEP): 0.31
FIC index min (ECL P99 [1]; compound +FOS): ≤0.13
FIC index min (ECL P99 [1]; compound +MEM): 0.54
FIC index min (ECL P99 [1]; compound +PIP): 0.13
FIC index min (ECO 190317 [3]; compound +ATM): 0.27
FIC index min (ECO 190317 [3]; compound +FEP): 0.19
FIC index min (ECO 190317 [3]; compound +FOS): 0.66
FIC index min (ECO 190317 [3]; compound +MEM): 0.56
FIC index min (ECO 190317 [3]; compound +PIP): ≤0.5
FIC index min (PAE UFR48 [4]; compound +ATM): 0.13
FIC index min (PAE UFR48 [4]; compound +FEP): 0.50
FIC index min (PAE UFR48 [4]; compound +FOS): 0.34
FIC index min (PAE UFR48 [4]; compound +MEM): 0.75
FIC index min (PAE UFR48 [4]; compound +PIP): 0.31
FIC index min (PAE UFR90 [5]; compound +ATM): 0.75
FIC index min (PAE UFR90 [5]; compound +FEP): 0.32
FIC index min (PAE UFR90 [5]; compound +FOS): 0.88
FIC index min (PAE UFR90 [5]; compound +MEM): 0.75
FIC index min (PAE UFR90 [5]; compound +PIP): 0.63
FIC index min (KPN UFR68; compound +ATM): 0.049
FIC index min (KPN UFR68; compound +FEP): 0.021
FIC index min (KPN UFR68; compound +FOS): 0.080
FIC index min (KPN UFR68; compound +MEM): 0.16
FIC index min (KPN UFR68; compound +PIP): 0.10
